# Data taken from ChEMBL document CHEMBL4428125, “8-Substituted 1,3-dimethyltetrahydropyrazino[2,1-f]purinediones: Water-soluble adenosine receptor antagonists and monoamine oxidase B inhibitors” (Bioorg Med Chem, 2016).
# Columns and labels:
# Adenosine receptor A1 [1] = biological target: T1, Adenosine receptor A1 (Rattus norvegicus, UniProt P25099); experiment: Displacement of [3H]CCPA from A1 receptor in rat brain cortex membranes by liquid scintillation counting method; type: cell membranes
# T1 sequence (P25099 whole entry): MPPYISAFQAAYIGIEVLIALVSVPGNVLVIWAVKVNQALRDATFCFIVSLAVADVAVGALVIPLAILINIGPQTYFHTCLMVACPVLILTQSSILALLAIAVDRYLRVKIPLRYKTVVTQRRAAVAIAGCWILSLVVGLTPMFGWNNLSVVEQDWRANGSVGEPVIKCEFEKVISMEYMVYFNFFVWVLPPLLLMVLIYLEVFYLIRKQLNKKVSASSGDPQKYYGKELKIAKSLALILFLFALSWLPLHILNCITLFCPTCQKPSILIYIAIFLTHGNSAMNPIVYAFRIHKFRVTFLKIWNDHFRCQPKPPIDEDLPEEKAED
# [2] = biological target: T2, Adenosine receptor A1 (Rattus norvegicus) (UniProt P25099); experiment: Displacement of [3H]CCPA from A1 receptor in rat brain cortex membranes at 1.5 uM by liquid scintillation counting method; type: cell membranes
# T2 sequence (whole entry): T1 sequence (P25099 whole entry)
# Adenosine receptor A2a = Adenosine receptor A2a (Rattus norvegicus, UniProt P30543); experiment: Displacement of [3H]MSX from A2A receptor in rat brain striatum membranes measured after 30 mins by liquid scintillation counting method; type: cell membranes
# Sequence of Adenosine receptor A2a (P30543 whole entry): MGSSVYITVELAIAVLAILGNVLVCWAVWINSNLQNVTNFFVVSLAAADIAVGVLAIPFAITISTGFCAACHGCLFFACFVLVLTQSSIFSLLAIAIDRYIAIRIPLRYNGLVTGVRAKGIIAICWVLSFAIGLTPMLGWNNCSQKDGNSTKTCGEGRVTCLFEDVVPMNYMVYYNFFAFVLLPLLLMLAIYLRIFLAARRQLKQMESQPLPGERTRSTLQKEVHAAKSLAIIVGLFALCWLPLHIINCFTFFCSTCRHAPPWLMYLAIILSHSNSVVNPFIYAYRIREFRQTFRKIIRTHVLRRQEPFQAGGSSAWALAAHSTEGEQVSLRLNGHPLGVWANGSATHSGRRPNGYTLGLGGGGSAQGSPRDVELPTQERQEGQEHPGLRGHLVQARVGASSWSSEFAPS
# [3] = biological target: T3, Amine oxidase [flavin-containing] B (Homo sapiens, UniProt P27338); experiment: Inhibition of recombinant human MAO-B expressed in baculovirus infected BTI insect cells at 10 uM preincubated for 30 mins followed by addition of p-tyramine as substrate measured over 45 mins by Amplex Red MAO assay relative to control; conditions: 0.75 h
# T3 sequence (P27338 whole entry): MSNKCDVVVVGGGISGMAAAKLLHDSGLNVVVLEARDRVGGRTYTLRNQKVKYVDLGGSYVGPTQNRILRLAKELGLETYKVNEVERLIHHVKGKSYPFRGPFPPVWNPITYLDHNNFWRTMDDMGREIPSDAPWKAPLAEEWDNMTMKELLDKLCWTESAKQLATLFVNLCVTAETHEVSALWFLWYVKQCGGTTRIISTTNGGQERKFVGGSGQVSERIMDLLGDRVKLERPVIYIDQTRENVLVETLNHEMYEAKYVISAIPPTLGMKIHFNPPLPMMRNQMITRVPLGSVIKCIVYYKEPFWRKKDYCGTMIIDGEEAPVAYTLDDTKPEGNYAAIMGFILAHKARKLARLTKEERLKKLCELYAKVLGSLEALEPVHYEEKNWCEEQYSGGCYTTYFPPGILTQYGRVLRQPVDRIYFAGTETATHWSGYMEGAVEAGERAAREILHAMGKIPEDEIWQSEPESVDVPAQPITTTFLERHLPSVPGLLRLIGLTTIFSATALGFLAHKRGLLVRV
# Adenosine receptor A2b = biological target: T4, Adenosine receptor A2b (Homo sapiens, UniProt P29275); experiment: Displacement of [3H]PSB-603 from human A2B receptor expressed in CHO cell membrane; type: cell membranes
# T4 sequence (P29275 whole entry): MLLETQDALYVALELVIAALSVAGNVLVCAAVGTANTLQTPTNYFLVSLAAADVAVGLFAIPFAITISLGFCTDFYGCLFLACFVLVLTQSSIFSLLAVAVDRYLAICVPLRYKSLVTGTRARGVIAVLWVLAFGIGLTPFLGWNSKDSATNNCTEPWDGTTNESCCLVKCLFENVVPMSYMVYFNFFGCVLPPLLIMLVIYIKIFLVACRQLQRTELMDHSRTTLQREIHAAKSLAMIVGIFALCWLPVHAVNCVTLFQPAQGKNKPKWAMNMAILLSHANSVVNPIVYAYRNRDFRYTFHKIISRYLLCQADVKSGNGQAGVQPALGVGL
# Adenosine receptor A3 = biological target: T5, Adenosine receptor A3 (Homo sapiens, UniProt P0DMS8); experiment: Displacement of [3H]PSB-11 from human A3 receptor expressed in CHO cell membrane by liquid scintillation counting method relative to control; type: cell membranes
# T5 sequence (P0DMS8 whole entry): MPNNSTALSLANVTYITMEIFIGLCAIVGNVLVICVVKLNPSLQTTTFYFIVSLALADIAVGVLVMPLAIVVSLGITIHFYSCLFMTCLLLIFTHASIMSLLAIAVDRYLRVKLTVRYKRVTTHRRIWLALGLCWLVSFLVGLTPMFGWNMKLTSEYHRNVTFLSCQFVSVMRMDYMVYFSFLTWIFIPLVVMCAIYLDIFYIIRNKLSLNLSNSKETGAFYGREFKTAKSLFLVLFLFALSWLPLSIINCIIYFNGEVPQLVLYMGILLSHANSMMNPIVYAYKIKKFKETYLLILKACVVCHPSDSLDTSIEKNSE
# [4] = biological target: T6, Adenosine receptor A3 (Homo sapiens) (UniProt P0DMS8); experiment: Displacement of [3H]PSB-11 from human A3 receptor expressed in CHO cell membrane at 10 uM by liquid scintillation counting method relative to control relative to control; type: cell membranes
# T6 sequence (whole entry): T5 sequence (P0DMS8 whole entry)
# [5] = biological target: T7, Adenosine receptor A2b (Homo sapiens) (UniProt P29275); experiment: Displacement of [3H]PSB-603 from human A2B receptor expressed in CHO cell membrane at 0.3 uM relative to control; type: cell membranes
# T7 sequence (whole entry): T4 sequence (P29275 whole entry)
# [6] = biological target: Adenosine receptor A2a (Rattus norvegicus) (UniProt P30543); experiment: Displacement of [3H]MSX from A2A receptor in rat brain striatum membranes at 1 uM measured after 30 mins by liquid scintillation counting method relative to control; type: cell membranes
# Sequence of Adenosine receptor A2a (Rattus norvegicus) (P30543 whole entry): as the sequence (P30543 whole entry) above
# [7] = biological target: T3, Amine oxidase [flavin-containing] B; experiment: Inhibition of recombinant human MAO-B expressed in baculovirus infected BTI insect cells preincubated for 30 mins followed by addition of p-tyramine as substrate measured over 45 mins by Amplex Red MAO assay
# [8] = biological target: T7, Adenosine receptor A2b (Homo sapiens); experiment: Displacement of [3H]PSB-603 from human A2B receptor expressed in CHO cell membrane at 1 uM relative to control; type: cell membranes
# [9] = Thermodynamic solubility of the compound at pH 1; type: physicochemical; conditions: buffer, read-out: Therm_solubility
# [10] = Thermodynamic solubility of the compound at pH 4; type: physicochemical; conditions: buffer, read-out: Therm_solubility
# [11] = Thermodynamic solubility of the compound at pH 7.4; type: physicochemical; conditions: buffer, read-out: Therm_solubility
# [12] = biological target: T8, Amine oxidase [flavin-containing] A (Homo sapiens, UniProt P21397); experiment: Inhibition of recombinant human MAO-A expressed in baculovirus infected BTI insect cells preincubated for 30 mins followed by addition of p-tyramine as substrate measured over 45 mins by Amplex Red MAO assay
# T8 sequence (P21397 whole entry): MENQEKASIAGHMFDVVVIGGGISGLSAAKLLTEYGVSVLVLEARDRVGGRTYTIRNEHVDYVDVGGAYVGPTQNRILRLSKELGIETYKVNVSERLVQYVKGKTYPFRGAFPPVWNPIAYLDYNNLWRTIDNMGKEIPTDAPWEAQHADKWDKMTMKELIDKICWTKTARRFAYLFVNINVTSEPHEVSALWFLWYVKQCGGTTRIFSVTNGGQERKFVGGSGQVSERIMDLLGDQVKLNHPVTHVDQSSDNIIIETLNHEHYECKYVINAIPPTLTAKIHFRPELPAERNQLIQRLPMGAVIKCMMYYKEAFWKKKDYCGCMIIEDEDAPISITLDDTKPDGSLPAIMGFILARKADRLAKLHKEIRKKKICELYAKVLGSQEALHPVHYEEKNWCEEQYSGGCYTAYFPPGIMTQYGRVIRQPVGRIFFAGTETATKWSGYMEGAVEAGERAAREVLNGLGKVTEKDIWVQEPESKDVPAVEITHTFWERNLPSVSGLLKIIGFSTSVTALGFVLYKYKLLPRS
# [13] = biological target: T8, Amine oxidase [flavin-containing] A; experiment: Inhibition of recombinant human MAO-A expressed in baculovirus infected BTI insect cells at 10 uM preincubated for 30 mins followed by addition of p-tyramine as substrate measured over 45 mins by Amplex Red MAO assay relative to control; conditions: 0.75 h
# Adenosine receptor A1 [14] = biological target: T9, Adenosine receptor A1 (Homo sapiens, UniProt P30542); experiment: Displacement of [3H]CCPA from human A1 receptor expressed in CHO cell membrane by liquid scintillation counting method; type: cell membranes
# T9 sequence (P30542 whole entry): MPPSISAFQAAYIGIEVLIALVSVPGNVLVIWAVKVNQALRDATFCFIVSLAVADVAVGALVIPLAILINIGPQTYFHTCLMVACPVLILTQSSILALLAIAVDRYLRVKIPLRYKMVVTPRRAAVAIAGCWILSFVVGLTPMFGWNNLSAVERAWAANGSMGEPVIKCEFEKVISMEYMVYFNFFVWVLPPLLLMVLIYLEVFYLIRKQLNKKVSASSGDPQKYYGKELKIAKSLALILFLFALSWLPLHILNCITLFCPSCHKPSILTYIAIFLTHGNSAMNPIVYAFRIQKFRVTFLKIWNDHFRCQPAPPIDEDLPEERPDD
SMILES,Ki (Adenosine receptor A1 [1]) [nM],Activity [2] [%],Ki (Adenosine receptor A2a) [nM],inhibition at 10 µM [3] [%],Ki (Adenosine receptor A2b) [nM],Ki (Adenosine receptor A3) [nM],Activity [4] [%],Activity [5] [%],Activity [6] [%],IC50 [7] [nM],Activity [8] [%],solubility thermodynamic [9] [µg/mL],solubility thermodynamic [10] [µg/mL],solubility thermodynamic [11] [µg/mL],IC50 [12] [nM],inhibition at 10 µM [13] [%],Ki (Adenosine receptor A1 [14]) [nM]
Cn1c(=O)c2c(nc3n2CCN([C@H]2CCc4ccccc42)C3)n(C)c1=O,> 1500,29,2480,22,> 300,> 10000,33,11,–,> 10000,–,–,–,–,–,–,–
Cn1c(=O)c2c(nc3n2CCN(C2CCN(Cc4ccccc4)CC2)C3)n(C)c1=O,> 1500,7,> 1000,2,> 1000,> 10000,10,–,5,> 10000,17,> 1500,> 1500,300,–,–,–
Cc1sc(-c2ccc(C(F)(F)F)cc2)nc1CN1CCn2c(nc3c2c(=O)n(C)c(=O)n3C)C1,> 1500,25,> 1000,67,> 1000,> 10000,40,–,19,10000,30,–,–,1,–,–,–
Cn1c(=O)c2c(nc3n2CCN(CCn2cccc2)C3)n(C)c1=O,> 1500,7,> 1000,19,> 1000,> 10000,37,–,8,> 10000,8,> 1500,1500,1200,> 10000,14,–
Cn1c(=O)c2c(nc3n2CCN(CCOc2ccccc2F)C3)n(C)c1=O,> 1500,5,> 1000,24,> 1000,> 10000,41,–,23,> 10000,12,> 1500,< 0.5,< 0.5,–,–,–
Cn1c(=O)c2c(nc3n2CCN(CC(O)c2ccccc2)C3)n(C)c1=O (stereo not given),> 1500,7,7110,3,> 1000,> 10000,11,–,–,> 10000,20,1100,70,90,–,–,–
Cn1c(=O)c2c(nc3n2CCN(CCc2cccc(F)c2)C3)n(C)c1=O,> 1500,6,1500,35,> 300,> 10000,16,8,–,> 10000,–,–,–,–,> 10000,12,–
Cn1c(=O)c2c(nc3n2CCN(CCc2ccccc2Br)C3)n(C)c1=O,> 1500,10,> 1000,–,> 1000,> 10000,35,–,27,970,24,> 1500,< 0.5,< 0.5,–,–,–
Cn1c(=O)c2c(nc3n2CCN(CCc2cccs2)C3)n(C)c1=O,> 1500,15,1590,21,> 300,> 10000,24,17,–,> 10000,–,–,–,–,> 10000,5,–

# Other lines, results leading:
Ki (Adenosine receptor A1 [1]) [nM],Activity [2] [%],Ki (Adenosine receptor A2a) [nM],inhibition at 10 µM [3] [%],Ki (Adenosine receptor A2b) [nM],Ki (Adenosine receptor A3) [nM],Activity [4] [%],Activity [5] [%],Activity [6] [%],IC50 [7] [nM],Activity [8] [%],solubility thermodynamic [9] [µg/mL],solubility thermodynamic [10] [µg/mL],solubility thermodynamic [11] [µg/mL],IC50 [12] [nM],inhibition at 10 µM [13] [%],Ki (Adenosine receptor A1 [14]) [nM],SMILES
> 1500,24,5630,65,> 300,> 10000,40,2,–,–,–,–,–,–,–,–,–,Cn1c(=O)c2c(nc3n2CCN(CCc2ccccc2F)C3)n(C)c1=O
> 1500,8,> 1000,22,> 1000,> 10000,42,–,31,> 10000,11,> 1500,< 0.5,< 0.5,–,–,–,Cn1c(=O)c2c(nc3n2CCN(CCOc2cccc(F)c2)C3)n(C)c1=O
138,–,2910,–,> 1000,> 10000,25,–,–,425,26,–,–,–,–,–,553,Cn1c(=O)c2c(nc3n2CCN(CCc2ccc(Cl)cc2C(F)(F)F)C3)n(C)c1=O
416,–,2250,–,> 1000,30900,–,–,–,2450,24,–,–,–,> 10000,15,3520,Cn1c(=O)c2c(nc3n2CCN(CCc2ccc(Cl)cc2Cl)C3)n(C)c1=O
